In US12338223B2 (PURISYS LLC, priority 2019, dated 2025):
≈ marks a conversion by molar mass, not a printed value.

Experiments:
CB2 receptor = CB2 receptor (Homo sapiens, UniProt P34972); conditions: fold lower affinity than THC; cited from earlier work
CB1 receptor [1] = target: T1, CB1 receptor (Homo sapiens, UniProt P21554); conditions: fold lower affinity than THC; cited from earlier work
CB1 receptor [2] = target: T1, CB1 receptor; conditions: cited from earlier work
[3] = Solubility of CBN in crystallization solvents (solvent screen); assay type: physicochemical; conditions: organic solvent or mixture, RT

T1 sequence (P21554 whole entry): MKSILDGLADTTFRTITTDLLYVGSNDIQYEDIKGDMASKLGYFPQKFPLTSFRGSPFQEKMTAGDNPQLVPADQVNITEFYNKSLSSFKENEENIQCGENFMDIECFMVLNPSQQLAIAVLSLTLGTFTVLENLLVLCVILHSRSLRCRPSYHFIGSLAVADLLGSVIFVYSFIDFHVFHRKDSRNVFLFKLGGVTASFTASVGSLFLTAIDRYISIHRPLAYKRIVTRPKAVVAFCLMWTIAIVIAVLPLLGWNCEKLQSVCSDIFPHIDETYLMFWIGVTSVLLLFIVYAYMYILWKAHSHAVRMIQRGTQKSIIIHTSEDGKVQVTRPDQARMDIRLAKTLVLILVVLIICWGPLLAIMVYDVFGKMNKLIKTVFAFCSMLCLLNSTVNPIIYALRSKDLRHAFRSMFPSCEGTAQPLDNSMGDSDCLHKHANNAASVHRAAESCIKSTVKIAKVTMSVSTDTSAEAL
Sequence of CB2 receptor (P34972 whole entry): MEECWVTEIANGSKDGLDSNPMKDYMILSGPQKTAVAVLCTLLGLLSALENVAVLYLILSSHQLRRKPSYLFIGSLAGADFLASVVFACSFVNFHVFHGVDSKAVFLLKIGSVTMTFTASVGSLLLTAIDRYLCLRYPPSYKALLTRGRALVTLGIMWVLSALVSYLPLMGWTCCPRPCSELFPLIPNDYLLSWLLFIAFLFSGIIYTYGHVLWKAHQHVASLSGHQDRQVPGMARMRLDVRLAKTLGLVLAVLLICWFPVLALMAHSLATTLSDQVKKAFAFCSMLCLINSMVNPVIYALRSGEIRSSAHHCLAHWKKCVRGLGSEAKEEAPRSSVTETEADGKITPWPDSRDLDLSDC

CCCCCc1cc(O)c2c(c1)OC(C)(C)c1ccc(C)cc1-2 [CBN, cannabinol]
Affinity lower relative to THC (CB2 receptor): about 3 fold | Affinity lower relative to THC (CB1 receptor [1]): 7- to 8 fold | Type of activity at CB1 receptors (CB1 receptor [2]): partial agonist | solubility ([3]; solvent Iso-Octane): 24.9 mg/mL (≈ 80.2 mM) | solubility ([3]; solvent n-Heptane): 33.4 mg/mL (≈ 108 mM)
